Results: publication PMC6225228, “Design, Synthesis and Evaluation of N-pyrazinylbenzamides as Potential Antimycobacterial Agents” (Molecules : A Journal of Synthetic Chemistry and Natural …, 2018)
Values after ≈ are worked out from the molar mass of the structure shown. Where two headings read alike, the source gives them in different places.

How the values were obtained:
Candida glabrata 20/I = assay: Antifungal microdilution broth, CG; format: cell-based; conditions: Nakaseomyces glabratus, 20/I, read-out: MIC CG
Trichosporon asahii 1188 = assay: Antifungal microdilution broth, TA; format: cell-based; conditions: read-out: MIC TA
[1] = system: Lichtheimia corymbifera 272; assay: Antifungal microdilution broth, LC; format: cell-based; conditions: read-out: MIC LC
[2] = system: Candida albicans ATCC 44859; assay: Antifungal microdilution broth, CA; format: cell-based; conditions: Candida albicans, read-out: MIC CA
Candida krusei E28 = assay: Antifungal microdilution broth, CK; format: cell-based; conditions: Pichia kudriavzevii, read-out: MIC CK
[3] = system: Trichophyton interdigitale 445; assay: Antifungal microdilution broth, TI; format: cell-based; conditions: read-out: MIC TI
[4] = system: Aspergillus fumigatus 231; assay: Antifungal microdilution broth, AF; format: cell-based; conditions: read-out: MIC AF
Candida tropicalis 156 = assay: Antifungal microdilution broth, CT; format: cell-based; conditions: read-out: MIC CT
[5] = system: Mycobacterium smegmatis CCM 4622 (ATCC 607); assay: Antimycobacterial microdilution, M. smegmatis; format: cell-based; conditions: Middlebrook 7H9 with OADC, resazurin; for MIC: Mycolicibacterium smegmatis, read-out: M. smeg. ATCC 607 MIC
[6] = system: Mycobacterium tuberculosis H37Rv CNCTC My 331/88 (ATCC 27294); assay: Antimycobacterial microdilution MABA, M. tuberculosis; format: cell-based; conditions: Middlebrook 7H9 with OADC growth supplement, pH = 6.6, MABA; for MIC: Mycobacterium tuberculosis, read-out: Mtb H37Rv ATCC 27294 MIC
[7] = system: M. kansasii CNCTC My 235/80 (ATCC 12478); assay: Antimycobacterial microdilution MABA, M. kansasii; format: cell-based, Mycobacterium kansasii; conditions: for MIC: Mycobacterium kansasii
[8] = system: M. avium ssp. avium CNCTC My 80/72 (ATCC 15769); assay: Antimycobacterial microdilution MABA, M. avium; format: cell-based, Mycobacterium avium; conditions: for MIC: Mycobacterium avium
[9] = Trichosporon asahii, 1188, 24 h
[10] = Trichosporon asahii, 1188, 48 h
[11] = Lichtheimia corymbifera, 272, 24 h
[12] = Lichtheimia corymbifera, 272, 48 h
[13] = Trichophyton interdigitale, 445, 72 h
[14] = Trichophyton interdigitale, 445, 120 h
[15] = Aspergillus fumigatus, 231, 24 h
[16] = Aspergillus fumigatus, 231, 48 h
[17] = Middlebrook 7H9 with OADC, pH 6.6, MABA

Q: Which MIC (Candida glabrata 20/I; 24 h) does the source give for `C[C@@H]1[C@H](O)[C@@H](C)/C=C/C=C/C=C/C=C/C=C/C=C/C=C/[C@H](O[C@@H]2O[C@H](C)[C@@H](O)[C@H](N)[C@@H]2O)C[C@@H]2O[C@](O)(C[C@@H](O)C[C@@H](O)[C@H](O)CC[C@@H](O)C[C@@H](O)CC(=O)O[C@H]1C)C[C@H](O)[C@H]2C(=O)O` [AMPB, amphotericin B, reference compound] here?
A: The MIC was 0.98 µM (≈ 0.906 µg/mL).

Q: And the MIC (Candida glabrata 20/I; 48 h)?
A: The MIC was 1.95 µM (≈ 1.8 µg/mL).

Q: And the MIC (Trichosporon asahii 1188; [9])?
A: Its MIC is 0.49 µM (≈ 0.453 µg/mL).

Q: What about the MIC (Trichosporon asahii 1188; [10]) of the same compound?
A: Its MIC is 0.98 µM (≈ 0.906 µg/mL).

Q: And the MIC [1, 11]?
A: Its MIC is 7.81 µM (≈ 7.22 µg/mL).

Q: And the MIC [1, 12]?
A: The MIC was 7.81 µM (≈ 7.22 µg/mL).

Q: And the MIC ([2]; ATCC44859, 24 h)?
A: The MIC was 0.12 µM (≈ 0.111 µg/mL).

Q: And the MIC ([2]; ATCC44859, 48 h)?
A: Its MIC is 0.49 µM (≈ 0.453 µg/mL).

Q: And the MIC (Candida krusei E28; E28, 24 h)?
A: Its MIC is 1.95 µM (≈ 1.8 µg/mL).

Q: And the MIC (Candida krusei E28; E28, 48 h)?
A: The MIC was 1.95 µM (≈ 1.8 µg/mL).

Q: And the MIC [3, 13]?
A: The MIC was 1.95 µM (≈ 1.8 µg/mL).

Q: And the MIC [3, 14]?
A: Its MIC is 1.95 µM (≈ 1.8 µg/mL).

Q: What about the MIC [4, 15] of the same compound?
A: The MIC was 1.95 µM (≈ 1.8 µg/mL).

Q: And the MIC [4, 16]?
A: Its MIC is 1.95 µM (≈ 1.8 µg/mL).

Q: And the MIC (Candida tropicalis 156; Candida tropicalis, 156, 24 h)?
A: Its MIC is 1.95 µM (≈ 1.8 µg/mL).

Q: What about the MIC (Candida tropicalis 156; Candida tropicalis, 156, 48 h) of the same compound?
A: The MIC was 1.95 µM (≈ 1.8 µg/mL).

Q: For `O=C(O)c1cn(C2CC2)c2cc(N3CCNCC3)c(F)cc2c1=O` [CPX, ciprofloxacin, reference compound], which MIC [5] is on record?
A: Its MIC is 0.195 µg/mL (≈ 0.589 µM).

Q: How did the “Mtb H37Rv ATCC 27294 MIC” value [6] turn out when `O=C(Nc1cncc(Cl)n1)c1ccccc1O` [Compound 3b] was run?
A: The value was over 100 µg/mL.

Q: What about the “M. smeg. ATCC 607 MIC” value [5] of the same compound?
A: The value was 250 µg/mL.

Q: What about the “M. kans. ATCC 12478 MIC” value [7, 17] of the same compound?
A: The value was over 100 µg/mL.

Q: What about the “M. avium ATCC 15769 MIC” value [8, 17] of the same compound?
A: The value was over 100 µg/mL.

Q: For `CCc1ccc(C(=O)Nc2cncc(Cl)n2)cc1` [Compound 3i], which MIC [6] is on record?
A: Its MIC is over 100 µg/mL.

Q: What about the MIC [5] of the same compound?
A: Its MIC is at least 500 µg/mL.

Q: What about the MIC ([7]; ATCC12478, Middlebrook 7H9 with OADC, pH 6.6, MABA, read-out: M. kans. ATCC 12478 MIC) of the same compound?
A: Its MIC is over 100 µg/mL.

Q: And the MIC ([8]; ATCC15769, Middlebrook 7H9 with OADC, pH 6.6, MABA, read-out: M. avium ATCC 15769 MIC)?
A: The MIC was over 100 µg/mL.

Q: For `OC(Cn1cncn1)(Cn1cncn1)c1ccc(F)cc1F` [FLU, fluconazole, reference compound], which MIC (Candida glabrata 20/I; 24 h) is on record?
A: Its MIC is 31.2 µM (≈ 9.57 µg/mL).

Q: And the MIC (Candida glabrata 20/I; 48 h)?
A: Its MIC is 250 µM (≈ 76.6 µg/mL).

Q: What about the MIC (Trichosporon asahii 1188; [9]) of the same compound?
A: The MIC was 250 µM (≈ 76.6 µg/mL).

Q: What about the MIC (Trichosporon asahii 1188; [10]) of the same compound?
A: Its MIC is 500 µM (≈ 153 µg/mL).

Q: And the MIC [1, 11]?
A: Its MIC is over 500 µM.

Q: What about the MIC [1, 12] of the same compound?
A: The MIC was over 500 µM.

Q: What about the MIC ([2]; ATCC44859, 24 h) of the same compound?
A: Its MIC is 0.24 µM (≈ 0.0735 µg/mL).

Q: And the MIC ([2]; ATCC44859, 48 h)?
A: Its MIC is 0.24 µM (≈ 0.0735 µg/mL).

Q: And the MIC (Candida krusei E28; E28, 24 h)?
A: Its MIC is 125 µM (≈ 38.3 µg/mL).

Q: And the MIC (Candida krusei E28; E28, 48 h)?
A: Its MIC is 250 µM (≈ 76.6 µg/mL).

Q: What about the MIC [3, 13] of the same compound?
A: The MIC was 7.81 µM (≈ 2.39 µg/mL).

Q: What about the MIC [3, 14] of the same compound?
A: Its MIC is 125 µM (≈ 38.3 µg/mL).

Q: What about the MIC [4, 15] of the same compound?
A: Its MIC is over 500 µM.

Q: And the MIC [4, 16]?
A: Its MIC is over 500 µM.

Q: What about the MIC (Candida tropicalis 156; Candida tropicalis, 156, 24 h) of the same compound?
A: The MIC was over 500 µM.

Q: And the MIC (Candida tropicalis 156; Candida tropicalis, 156, 48 h)?
A: Its MIC is over 500 µM.

Q: How did the “Mtb H37Rv ATCC 27294 MIC” value [6] turn out when `NNC(=O)c1ccncc1` [INH, isoniazid, reference compound] was run?
A: Its value is 0.1 to 0.39 µg/mL.

Q: What about the MIC [6] of the same compound?
A: The MIC was 0.1 to 0.2 µg/mL (≈ 0.729 to 1.46 µM).

Q: And the “M. kans. ATCC 12478 MIC” value [7, 17]?
A: The value was 6.25 to 12.5 µg/mL.

Q: What about the MIC ([7]; ATCC12478, pH 6.6, read-out: M. kans. ATCC 12478 MIC, Middlebrook 7H9 with OADC, pH 6.6, MABA) of the same compound?
A: Its MIC is 3.13 to 12.5 µg/mL (≈ 22.8 to 91.1 µM).

Q: What about the MIC ([8]; ATCC15769, pH 6.6, read-out: M. avium ATCC 15769 MIC) of the same compound?
A: The MIC was 6.25 to 12.5 µg/mL (≈ 45.6 to 91.1 µM).
